Measurements as given in publication PMC9019904, “AD Informer Set: Chemical tools to facilitate Alzheimer's disease drug discovery” (Alzheimer's & Dementia : Translational Research & Clinical …, 2022).
Converted amounts (≈) assume the structure as drawn.

Tests used:
[1] = tested on: BV2 (mouse microglia) cell line; test: pHrodo-myelin phagocytosis/cell viability high content imaging assay: phagocytosis signal; assay type: cell-based
How it was run: (§1)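 Cells receive pHrodo-myelin, then are imaged at high content approximately 22 hours later. Phagocytosis signal and viability are captured in the same run. Three measurements are extracted per well.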

[2] = tested on: HMC3 (human microglia) cell line; test: as above; assay type: cell-based
How it was run: as §1

physchem = settings: pH 7.4, aqueous buffer, kinetic from dmso stock
[3] = tested on: BV2 (mouse microglia) cell line; test: pHrodo-myelin phagocytosis/cell viability high content imaging assay: viability (cell count, nuclear area, nuclear intensity); settings: 10 μM, BV2
How it was run: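 Immortalized microglia are treated with compound (10 μM, single concentration) for 48 h, the final 20 h alongside pHrodo-myelin. Data are the mean of duplicates, reported as % of untreated control.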

Row | SMILES | Stimulation of mouse microglial phagocytosis at 10 μM (>150% control) ([1]; BV2, 10 μM) | Inhibition of human microglial phagocytosis at 10 μM (<70% control) ([2]; HMC3, 10 μM) | solubility kinetic (physchem) [µM] | Mouse microglial cytotoxicity at 10 μM (<70% control) [3] | Stimulation of mouse microglial phagocytosis at 10 μM (>150% control) ([1]; 10 μM, BV2) | Inhibition of human microglial phagocytosis at 10 μM (<70% control) ([2]; 10 μM, HMC3) | Inhibition of mouse microglial phagocytosis at 10 μM (<70% control) ([1]; 10 μM, BV2) | Inhibition of mouse microglial phagocytosis at 10 μM (<70% control) ([1]; BV2, 10 μM) | Stimulation of human microglial phagocytosis at 10 μM (>150% control) ([2]; HMC3, 10 μM)
1 | C=Cc1c(C)c2cc3nc(cc4[nH]c(cc5nc(cc1[nH]2)C(C)=C5CCC(=O)O)c(CCC(=O)OC)c4C)[C@@]1(C)C3=CC=C(C(=O)OC)[C@H]1C(=O)OC [Verteporfin] | Y (The compound was found to stimulate phagocytosis (response threshold: >150% control) when murine immortalized microglial cells were dosed at 10 μM (Y: yes)) | Y (The compound was found to inhibit phagocytosis (response threshold: <70% control) when human immortalized microglial cells were dosed at 10 μM (Y: yes)) | 134 (≈ 96.7 µg/mL) |  |  |  |  |  | 
2 | CC(C)CCC[C@@H](C)[C@H]1CC[C@H]2[C@@H]3CC[C@H]4C[C@H](N)CC[C@]4(C)[C@H]3CC[C@]12C [3α-Aminocholestane] |  |  | 2.2 (≈ 0.853 µg/mL) | Y (The compound was found to be cytotoxic (cell count threshold: <70% control) when murine immortalized microglial cells were dosed at 10 μM (Y: yes)) | Y (The compound was found to stimulate phagocytosis (response threshold: >150% control) when murine immortalized microglial cells were dosed at 10 μM (Y: yes)) | Y (The compound was found to inhibit phagocytosis (response threshold: <70% control) when human immortalized microglial cells were dosed at 10 μM (Y: yes)) |  |  | 
3 | CN(C)CC#Cc1ccc(OCCCc2sc(N3CCc4cccc(C(=O)Nc5nc6ccccc6s5)c4C3)nc2C(=O)O)c(F)c1 [A-1155463] | Y (The compound was found to stimulate phagocytosis (response threshold: >150% control) when murine immortalized microglial cells were dosed at 10 μM (Y: yes)) | Y (The compound was found to inhibit phagocytosis (response threshold: <70% control) when human immortalized microglial cells were dosed at 10 μM (Y: yes)) | 1.5 (≈ 1 µg/mL) |  |  |  |  |  | 
4 | Cc1c(-c2ccc(O)cc2)n(Cc2ccc(OCCN3CCCCCC3)cc2)c2ccc(O)cc12 [Bazedoxifene acetate] |  |  | 10.8 |  |  | Y (The compound was found to inhibit phagocytosis (response threshold: <70% control) when human immortalized microglial cells were dosed at 10 μM (Y: yes)) | Y (The compound was found to inhibit phagocytosis (response threshold: <70% control) when murine immortalized microglial cells were dosed at 10 μM (Y: yes)) |  | 
5 | CC(C)Nc1cc(-c2c[nH]c(C(=O)N[C@H](CO)c3cccc(Cl)c3)c2)c(Cl)cn1 [Ulixertinib] |  |  | 8.7 (≈ 3.77 µg/mL) | Y (The compound was found to be cytotoxic (cell count threshold: <70% control) when murine immortalized microglial cells were dosed at 10 μM (Y: yes)) | Y (The compound was found to stimulate phagocytosis (response threshold: >150% control) when murine immortalized microglial cells were dosed at 10 μM (Y: yes)) | Y (The compound was found to inhibit phagocytosis (response threshold: <70% control) when human immortalized microglial cells were dosed at 10 μM (Y: yes)) |  |  | 
6 | CNC(=O)CN1CCC(Oc2cc3c(Nc4cccc(Cl)c4F)ncnc3cc2OC)CC1 [Sapitinib (AZD8931)] |  |  | 115 (≈ 54.3 µg/mL) |  |  |  |  | Y (The compound was found to inhibit phagocytosis (response threshold: <70% control) when murine immortalized microglial cells were dosed at 10 μM (Y: yes)) | Y (The compound was found to stimulate phagocytosis (response threshold: >150% control) when human immortalized microglial cells were dosed at 10 μM (Y: yes))
